Source: US10660874B2, “Ecteinamycin, compositions and uses thereof” (Wisconsin Alumni Research Foundation, priority 2014, dated 2020)
Values after ≈ are worked out from the molar mass of the structure shown.

How the values were obtained:
[1] = tested on: S. aureus (ATCC #29213) cells; assay: Membrane depolarization assay (DiOC2(3), flow cytometry); assay type: cell-based; conditions: positive control, 10 μL of 500 μM in 1 mL
Description: S. aureus (ATCC #29213) cells were grown to log phase (14 h) in Mueller Hinton Broth cation-adjusted (MHB50) and were diluted to 0.07 OD600 with media. One mL aliquots were transferred to 1.5 mL centrifuge tubes and treated with the following in triplicate: 10 μL DMSO (control), 10 μL of 600 μg/mL ecteinamycin, 10 μL of 3.2 mg/mL ecteinamycin (1), 10 μL of 500 μM carbonyl cyanide m-chlorophenythydrazone (CCCP), and 10 μL of 3.2 mg/mL rifampicin. Additionally, each tube received 10 μL of 3 mM DiOC2(3) (3,3′-diethyloxacarbocyanine iodide). The tubes were shaken for 15 minutes at room temperature. The cells were then analyzed with a FACSCalibur (BD Biosciences) flow cytometer and CellQuestPro software (BD Biosciences). Collected data represent the geometric means of fluorescence of 40,000 gated events.
Flow cytometry was used to determine if ecteinamycin, like other polyether ionophore antibiotics, depolarizes cell membranes. 3,3′-diethyloxacarbocyanine iodide (“DiOC2(3)”) fluoresces green in bacterial cells but shifts to red when the cell membrane is depolarized. Therefore, the ratio of red to green fluorescence is indicative of the membrane potential. S. aureus ATCC […] cells were treated with ecteinamycin at concentrations of 6 and 32 μg/mL.
All cells except the DMSO negative control were treated with DiOC2(3) and analyzed by flow cytometry. […]

C. difficile = conditions: reported; cited from earlier work
MSSA (ATCC #29213) = assay: MIC, dilution antimicrobial susceptibility test; assay type: cell-based, Methicillin-sensitive Staphylococcus aureus; conditions: Staphylococcus aureus, 18 h
Description: (§1) Ecteinamycin was tested for antibacterial activity against C. difficile (ATCC BAA-1870), MRSA (ATCC #33591), MSSA (ATCC #29213), E. coli (ATCC #25922), P. aeruginosa (ATCC #27853), and VRE (ATCC), and MICs were determined using a dilution antimicrobial susceptibility test for aerobic (MRSA, MSSA, E. coli, P. aeruginosa, and VRE) and anaerobic (C. difficile) bacteria. Ecteinamycin was dissolved in DMSO, serially diluted to 10 concentrations (0.0313-32 μg/mL), and tested in a 96-well plate. […] Ecteinamycin and vancomycin were tested in triplicate. Six untreated media controls were included on each plate. For MRSA, MSSA, E. coli, and P. aeruginosa, the plates were incubated at 33° C. for 18 h. For C. difficile, the plate was incubated at 36° C. for 48 h anaerobically and then read visually using a mirror apparatus. All manipulations to the plate were done inside the anaerobe chamber. The MIC was determined as the lowest concentration that inhibited visible growth.

MRSA (ATCC #33591) = assay: MIC, dilution antimicrobial susceptibility test; assay type: cell-based, Methicillin-resistant Staphylococcus aureus; conditions: Staphylococcus aureus, 18 h
Description: as §1

[2] = in vivo; cited from earlier work

N#CC(C#N)=NNc1cccc(Cl)c1 [CCCP, carbonyl cyanide m-chlorophenylhydrazone, reference compound]
membrane depolarization (ratio of red to green fluorescence) [1]: membrane depolarization to a greater extent than ecteinamycin

CO[C@@H]1C[C@@H](C[C@H]2CC[C@H](C)[C@H]([C@@H](C)C(=O)O)O2)O[C@]2(O[C@](C)([C@H]3CC[C@@](C)([C@@H]4O[C@@H]([C@H]5O[C@@](O)(CO)[C@H](C)C[C@@H]5C)C[C@@H]4C)O3)C[C@H]2C)[C@@H]1C [Nigericin]
MIC (C. difficile): 0.0025 µg/mL (≈ 0.00345 µM)

CN[C@H](CC(C)C)C(=O)N[C@H]1C(=O)N[C@@H](CC(N)=O)C(=O)N[C@H]2C(=O)N[C@H]3C(=O)N[C@H](C(=O)N[C@H](C(=O)O)c4cc(O)cc(O)c4-c4cc3ccc4O)[C@H](O)c3ccc(c(Cl)c3)Oc3cc2cc(c3O[C@@H]2O[C@H](CO)[C@@H](O)[C@H](O)[C@H]2O[C@H]2C[C@](C)(N)[C@H](O)[C@H](C)O2)Oc2ccc(cc2Cl)[C@H]1O [Vancomycin, reference compound]
MIC (MSSA (ATCC #29213)): 1 µg/mL (≈ 0.69 µM)
MIC (MRSA (ATCC #33591)): 1 µg/mL (≈ 0.69 µM)

CC[C@@]1([C@@H]2O[C@@H]([C@H]3O[C@@](O)(CO)[C@H](C)C[C@@H]3C)C[C@@H]2C)CC[C@H]([C@]2(C)CC[C@]3(C[C@H](O)[C@@H](C)[C@@H]([C@@H](C)[C@@H](OC)[C@H](C)C(=O)O)O3)O2)O1 [monensin]
MIC (C. difficile): 0.5 µg/mL (≈ 0.745 µM)
oral bioavailability [2]: 30%
